The text below walks through data of US5912330A, “Crystalline maltosyl glucoside, and its production and use” (Kabushiki Kaisha Hayashibara Seibutsu Kagaku Kenkyujo, priority 1994, dated 1999).

Values after ≈ are worked out from the molar mass of the structure shown. A value given as a limit tells only on which side of the number the result lay.

Series [1] in a line: Hygroscopicity: water content and appearance at 90.1% relative humidity. It counts as physicochemical. The note with it: for Hygroscopicity and appearance: in words. The procedure: About 1 g powder of hydrous crystalline maltosyl glucoside, anhydrous crystalline maltosyl glucoside or amorphous crystalline maltosyl glucoside was placed in a polyethylene vessel and allowed to stand in high humidity conditions of 90.1% relative humidity, and the changes of moisture content and appearance of these powders were observed and measured at a prescribed interval. Hydrous and anhydrous crystals, which were prepared by the methods of Experiment B-1, and amorphous crystal, which was prepared by dissolving hydrous crystal substance in deionized water and dried in vacuo to obtain a test sample.

In series [2] the test system is mice. Put plainly: Acute toxicity in mice upon oral administration. The format is in vivo. The note with it: for mortality: maximum administrable dose. The procedure:
(§1) Hydrous and anhydrous crystalline maltosyl glucosides prepared by the method in Experiment B-1 were tested for acute toxicity in mice upon oral administration.

Series [3] can be described thus: Solubility in water. It counts as physicochemical. The note with it: 25° C. water. The procedure: (8) Solubility (as anhydride)
Up to about 163 g each hydrous and anhydrous crystals were respectively soluble in 100 ml of 25° C. water.

The nature of series [4]: Moisture adsorption / hygroscopicity of the products of the Examples. The format is physicochemical.
Series [5] is described as follows: Acute toxicity in mice upon oral administration. It counts as in vivo. The note with it: mouse, in vivo. The procedure:
as §1

A short description of series [6]: Reducing power (DE) by Somogyi-Nelson method. It counts as physicochemical. As to conditions: dextrose equivalent. The source says: For purifying these newly formed saccharides, the reaction products were decolored, deionized, concentrated and subjected to column fractionation using a strongly-acidic cation exchanger in alkali-metal form ("XT-1016", Na^+ form, 4% cross-linking degree, a product of Tokyo Organic Chemical Industries, Ltd., Tokyo, Japan). More particularly, the cation exchanger was packed in 3 jacketed stainless steel columns, inner diameter of 2.0 cm, length of 1 m each, cascaded in series, which were then loaded with either reaction product in an amount of 5 v/v % to the volume of the cation exchanger and then applied with 55° C. water at an SV (space velocity) 0.13 for fractionation, and fractions containing 97% or more newly formed saccharides were collected. The obtained fractions were separately lyophilized into high-purity saccharide preparations. The yields against particular material substrates were about 9% for PI, about 65% for PII, about 82% for PIII, about 80% for PIV and about 77% for PV, and the final purities were 97.5% for PI, 98.6% for PII, 99.5% for PIII, 98.4% for PIV and 98.4% for PV.
These high-purity saccharide preparations were tested for their reducing powers with the Somogyi-Nelson method and their reducing powers were represented in terms of DE (dextrose equivalent).

In the case of `OC[C@H]1O[C@H](O[C@H]2O[C@H](CO)[C@@H](O[C@H]3O[C@H](CO)[C@@H](O)[C@H](O)[C@H]3O)[C@H](O)[C@H]2O)[C@H](O)[C@@H](O)[C@@H]1O` [Amorphous crystal, O-α-D-glucopyranosyl-(→4)-α-D-glucopyranosyl α-D-glucopyranoside], the Water content in series [1] (0 hour) is recorded as 0.5%; in series [1] (2 hours), 6.3%; in series [1] (8 hours), 17.4%; in series [1] (24 hours) it was 20.0%. The Hygroscopicity and appearance entry in series [1] is “very hygroscopic, readily solidified, and free flowing”.

As usually defined, the LD50 is the dose at which mortality reaches 50%. A higher LD50 goes with lower toxicity. `OC[C@H]1O[C@H](O[C@H]2O[C@H](CO)[C@@H](O[C@H]3O[C@H](CO)[C@@H](O)[C@H](O)[C@H]3O)[C@H](O)[C@H]2O)[C@H](O)[C@@H](O)[C@@H]1O` [Anhydrous crystal, O-α-D-glucopyranosyl-(→4)-α-D-glucopyranosyl α-D-glucopyranoside] gave an LD50 in series [2] not below 50000 mg/kg. The mortality result in series [2] is recorded as “no mouse died”. Further, the “Solubility (as anhydride)” value in series [3] is recorded as “about 163 g/100 ml”. Also, the Water content was found to be 0.3% in series [1] (0 hour), 10.3% in series [1] (2 hours), 10.4% in series [1] (8 hours) and 10.5% in series [1] (24 hours). In addition, the Hygroscopicity and appearance entry in series [1] is “hygroscopic, however, had no change of appearance and retained free-flowing ability”.

On to `OC[C@H]1O[C@H](O[C@H]2O[C@H](CO)[C@@H](O[C@H]3O[C@H](CO)[C@@H](O)[C@H](O)[C@H]3O)[C@H](O)[C@H]2O)[C@H](O)[C@@H](O)[C@@H]1O` [Example A-1], for which the hygroscopicity result in series [4] (in words, product of the Example) is on record as “substantially no hygroscopicity”.

Regarding `OC[C@H]1O[C@H](O[C@H]2O[C@H](CO)[C@@H](O[C@H]3O[C@H](CO)[C@@H](O)[C@H](O)[C@H]3O)[C@H](O)[C@H]2O)[C@H](O)[C@@H](O)[C@@H]1O` [Example A-5], the “water content after standing in a room” value in series [4] (anhydrous crystal converted into hydrous crystal) is recorded as “about 10%”.

For orientation: solubility means how much of the substance goes into solution per volume. `OC[C@H]1O[C@H](O[C@H]2O[C@H](CO)[C@@H](O[C@H]3O[C@H](CO)[C@@H](O)[C@H](O)[C@H]3O)[C@H](O)[C@H]2O)[C@H](O)[C@@H](O)[C@@H]1O` [Hydrous crystal, O-α-D-glucopyranosyl-(→4)-α-D-glucopyranosyl α-D-glucopyranoside]: the mortality result in series [2] is “no mouse died”. Moreover, the LD50 in series [5] is not below 50000 mg/kg. Further, the solubility in series [3] (read-out: Solubility (as anhydride)) was approximately 1630 mg/mL (≈ 3230 mM). For the same molecule, the Water content in series [1] (0 hour) is recorded as 9.9%; in series [1] (2 hours), 10.4%; in series [1] (8 hours) it was 10.5%; in series [1] (24 hours), 10.5%. The Hygroscopicity and appearance entry in series [1] is “less hygroscopic, free flowing, and readily handleable”.

Consider `OC[C@H]1O[C@H](O[C@H]2O[C@H](CO)[C@@H](O[C@H]3O[C@H](CO)[C@@H](O)[C@H](O)[C@H]3O)[C@H](O)[C@H]2O)[C@H](O)[C@@H](O)[C@@H]1O` [PI, α-maltosyl glucoside], for which the DE in series [6] is recorded as 0.83.

Consider `OC[C@H]1O[C@H](O[C@H]2O[C@H](CO)[C@@H](O[C@H]3O[C@H](CO)[C@@H](O[C@H]4O[C@H](CO)[C@@H](O)[C@H](O)[C@H]4O)[C@H](O)[C@H]3O)[C@H](O)[C@H]2O)[C@H](O)[C@@H](O)[C@@H]1O` [PII, α-maltotriosyl glucoside], for which the DE in series [6] turned out to be 0.35.

On to `OC[C@H]1O[C@H](O[C@H]2O[C@H](CO)[C@@H](O[C@H]3O[C@H](CO)[C@@H](O[C@H]4O[C@H](CO)[C@@H](O[C@H]5O[C@H](CO)[C@@H](O)[C@H](O)[C@H]5O)[C@H](O)[C@H]4O)[C@H](O)[C@H]3O)[C@H](O)[C@H]2O)[C@H](O)[C@@H](O)[C@@H]1O` [PIII, α-maltotetraosyl glucoside], for which the DE in series [6] stood at 0.10.

In the case of `OC[C@H]1O[C@H](O[C@H]2O[C@H](CO)[C@@H](O[C@H]3O[C@H](CO)[C@@H](O[C@H]4O[C@H](CO)[C@@H](O[C@H]5O[C@H](CO)[C@@H](O[C@H]6O[C@H](CO)[C@@H](O)[C@H](O)[C@H]6O)[C@H](O)[C@H]5O)[C@H](O)[C@H]4O)[C@H](O)[C@H]3O)[C@H](O)[C@H]2O)[C@H](O)[C@@H](O)[C@@H]1O` [PIV, α-maltopentaosyl glucoside], the DE in series [6] stood at 0.27.

In the case of `OC[C@H]1O[C@H](O[C@H]2O[C@H](CO)[C@@H](O[C@H]3O[C@H](CO)[C@@H](O[C@H]4O[C@H](CO)[C@@H](O[C@H]5O[C@H](CO)[C@@H](O[C@H]6O[C@H](CO)[C@@H](O[C@H]7O[C@H](CO)[C@@H](O)[C@H](O)[C@H]7O)[C@H](O)[C@H]6O)[C@H](O)[C@H]5O)[C@H](O)[C@H]4O)[C@H](O)[C@H]3O)[C@H](O)[C@H]2O)[C@H](O)[C@@H](O)[C@@H]1O` [PV, α-maltohexaosyl glucoside], in series [6], the DE amounted to 0.23.
